Measurements reported in the supplement of paper PMC10307832.

compound: Cc1cc([C@@H](C)Nc2ccccc2C(=O)O)c2nc(N3CCOCC3)cc(=O)n2c1 [AZD6482] + CC(=O)Nc1cccc(-n2c(=O)n(C3CC3)c(=O)c3c(Nc4ccc(I)cc4F)n(C)c(=O)c(C)c32)c1 [Trametinib] (partner 0.02 µM); assay: relative viability (nuclei count vs DMSO), 5 days (fraction); higher = more cells survive; settings: first compound 0.08 µM
How it was run: (§1)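 One day after seeding in 1536-well plates, lung cancer cell lines were dosed by pin tool. Dosing was either single-drug or a fixed anchor-drug dose plus five library-drug doses (not always all listed) in √10 steps. After 5 days, nuclei were stained in one fix-and-stain step and counted on 4× images, and relative viability is the nuclei count of treated wells over that of vehicle wells, given as the median of duplicate plates.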

Row | Cell Line | relative viability
1 | NCI-H1755 | 0.7
2 | NCI-H2023 | 0.455
3 | HCC-15 | 0.356
4 | NCI-H1793 | 0.37
5 | PC-14 | 0.704
6 | EKVX | 0.293
7 | LC-2-ad | 0.864
8 | NCI-H1944 | 0.38
9 | NCI-H1975 | 0.287

same assay, conditions: first compound 0.253 µM

Row | Cell Line | relative viability
10 | NCI-H322M | 0.534
11 | LCLC-97TM1 | 0.202
12 | NCI-H2009 | 0.163
13 | A-427 | 0.783
14 | NCI-H441 | 0.435
15 | NCI-H661 | 0.555
16 | NCI-H1734 | 0.656
17 | NCI-H460 | 0.106
18 | NCI-H2347 | 0.271
19 | SK-LU-1 | 0.418
20 | NCI-H1395 | 0.8
21 | 201T | 0.698
22 | NCI-H1915 | 0.27
23 | HCC-827 | 0.462
24 | LXF-289 | 0.77
25 | NCI-H23 | 0.34
26 | NCI-H647 | 0.367

Row | Cell Line | relative viability
27 | CAL-12T | 0.276
28 | NCI-H1651 | 0.7
29 | EPLC-272H | 0.213
30 | NCI-H2228 | 0.579
31 | NCI-H1792 | 0.377
32 | NCI-H1355 | 0.374
33 | NCI-H3122 | 0.23
34 | NCI-H1437 | 0.451
35 | NCI-H1755 | 0.75
36 | NCI-H2023 | 0.52
37 | HCC-15 | 0.348
38 | NCI-H1793 | 0.397
39 | PC-14 | 0.747
40 | EKVX | 0.291
41 | LC-2-ad | 0.886
42 | NCI-H1944 | 0.375
43 | NCI-H1975 | 0.32

same assay, conditions: first compound 0.8 µM

Row | Cell Line | relative viability
44 | NCI-H322M | 0.58
45 | LCLC-97TM1 | 0.171
46 | NCI-H2009 | 0.21
47 | A-427 | 0.691
48 | NCI-H441 | 0.39
49 | NCI-H661 | 0.61
50 | NCI-H1734 | 0.565
51 | NCI-H460 | 0.146
52 | NCI-H2347 | 0.222
53 | SK-LU-1 | 0.495
54 | NCI-H1395 | 0.785
55 | 201T | 0.704
56 | NCI-H1915 | 0.29
57 | HCC-827 | 0.473
58 | LXF-289 | 0.801
59 | NCI-H23 | 0.326
60 | NCI-H647 | 0.333

Row | Cell Line | relative viability
61 | CAL-12T | 0.234
62 | NCI-H1651 | 0.835
63 | EPLC-272H | 0.27
64 | NCI-H2228 | 0.457
65 | NCI-H1792 | 0.41
66 | NCI-H1355 | 0.37
67 | NCI-H3122 | 0.184
68 | NCI-H1437 | 0.473
69 | NCI-H1755 | 0.693
70 | NCI-H2023 | 0.547
71 | HCC-15 | 0.33
72 | NCI-H1793 | 0.352
73 | PC-14 | 0.794
74 | EKVX | 0.286
75 | LC-2-ad | 0.942
76 | NCI-H1944 | 0.426
77 | NCI-H1975 | 0.307

same assay, conditions: first compound 2.53 µM

Row | Cell Line | relative viability
78 | NCI-H322M | 0.452
79 | NCI-H2009 | 0.139
80 | A-427 | 0.548
81 | NCI-H661 | 0.428
82 | NCI-H1734 | 0.519
83 | NCI-H460 | 0.0746
84 | NCI-H2347 | 0.265
85 | SK-LU-1 | 0.399
86 | NCI-H1395 | 0.522
87 | 201T | 0.653
88 | NCI-H1915 | 0.239
89 | HCC-827 | 0.346
90 | LXF-289 | 0.717
91 | NCI-H23 | 0.283
92 | NCI-H647 | 0.254
93 | CAL-12T | 0.185

Row | Cell Line | relative viability
94 | NCI-H1651 | 0.691
95 | EPLC-272H | 0.234
96 | NCI-H2228 | 0.484
97 | NCI-H1792 | 0.251
98 | NCI-H1355 | 0.339
99 | NCI-H3122 | 0.181
100 | NCI-H1437 | 0.298
101 | NCI-H1755 | 0.542
102 | NCI-H2023 | 0.28
103 | HCC-15 | 0.271
104 | NCI-H1793 | 0.32
105 | PC-14 | 0.455
106 | EKVX | 0.242
107 | LC-2-ad | 0.798
108 | NCI-H1944 | 0.351
109 | NCI-H1975 | 0.278

same assay, conditions: first compound 8 µM

Row | Cell Line | relative viability
110 | NCI-H322M | 0.443
111 | LCLC-97TM1 | 0.154
112 | NCI-H2009 | 0.185
113 | A-427 | 0.612
114 | NCI-H441 | 0.312
115 | NCI-H661 | 0.387
116 | NCI-H1734 | 0.491
117 | NCI-H460 | 0.126
118 | NCI-H2347 | 0.238
119 | SK-LU-1 | 0.453
120 | NCI-H1395 | 0.627
121 | 201T | 0.708
122 | NCI-H1915 | 0.226
123 | HCC-827 | 0.251
124 | LXF-289 | 0.609
125 | NCI-H23 | 0.247
126 | NCI-H647 | 0.209

Row | Cell Line | relative viability
127 | CAL-12T | 0.302
128 | NCI-H1651 | 0.68
129 | EPLC-272H | 0.194
130 | NCI-H2228 | 0.494
131 | NCI-H1792 | 0.283
132 | NCI-H1355 | 0.305
133 | NCI-H3122 | 0.161
134 | NCI-H1437 | 0.282
135 | NCI-H1755 | 0.508
136 | NCI-H2023 | 0.389
137 | HCC-15 | 0.273
138 | NCI-H1793 | 0.283
139 | PC-14 | 0.622
140 | EKVX | 0.203
141 | LC-2-ad | 0.614
142 | NCI-H1944 | 0.335
143 | NCI-H1975 | 0.39

compound: Cc1cc([C@@H](C)Nc2ccccc2C(=O)O)c2nc(N3CCOCC3)cc(=O)n2c1 [AZD6482] + CCNC(=O)c1noc(-c2cc(C(C)C)c(O)cc2O)c1-c1ccc(CN2CCOCC2)cc1 [Luminespib] (partner 0.01 µM); assay: as above; settings: first compound 0.08 µM
How it was run: as §1

Row | Cell Line | relative viability
144 | NCI-H322M | 0.776
145 | LCLC-97TM1 | 0.77
146 | NCI-H2009 | 1.04
147 | A-427 | 0.974
148 | NCI-H441 | 0.389
149 | NCI-H661 | 0.959
150 | NCI-H1734 | 0.194
151 | NCI-H460 | 0.0355
152 | NCI-H2347 | 0.329
153 | NCI-H1395 | 0.541
154 | 201T | 0.995
155 | NCI-H1915 | 0.697
156 | HCC-827 | 0.601
157 | LXF-289 | 0.688
